Experiment [1] has as its target Human immunodeficiency virus type 1 reverse transcriptase (Human immunodeficiency virus 1) (UniProt Q72547).
In experiment [2] the target is Human immunodeficiency virus type 1 reverse transcriptase (Human immunodeficiency virus 1, UniProt Q72547). Put plainly: Inhibitory activity against HIV-1 reverse transcriptase.

As a reminder, the IC90 is the concentration needed for an effect of 90%. Lower therefore signals an effect from little substance. In general, IC50 refers to the point on the concentration scale where inhibition reaches its midpoint. Lower therefore signals higher potency.

Molecules are shown by their SMILES.

On to `CCCC#CC1(C(F)(F)F)OC(=O)Nc2cccc(F)c21` (stereo not given), for which the 90% effect concentration (IC90) in experiment [1] is 0.00564 µM. For the same compound, half-maximal inhibition in experiment [2] (IC50) required 0.156 µM.
Taken in the same sequence, the figures for `CCCC#CC1(C(F)(F)F)OC(=O)Nc2ccc(N)cc21` (stereo not given) were 0.0335 µM and 1.51 µM.
Take `CNc1ccc2c(c1)C(C#CC(C)C)(C(F)(F)F)OC(=O)N2` (stereo not given): the 90% effect concentration (IC90) in experiment [1] was 0.0103 µM. In addition, the midpoint of inhibition in experiment [2], the IC50, lay at 0.473 µM.
For `CC(C)C#CC1(C(F)(F)F)OC(=O)Nc2ccc([N+](=O)[O-])cc21` (stereo not given) the same measures were 0.00335 µM and 0.199 µM.
In experiment [1], `O=C1Nc2ccc([N+](=O)[O-])cc2C(C#CC2CC2)(C(F)(F)F)O1` (stereo not given) had an IC90 of 0.00083 µM. In experiment [2], the 50% inhibitory concentration (IC50) is 0.209 µM.
Taken in the same sequence, the figures for `Nc1ccc2c(c1)C(C#CC1CC1)(C(F)(F)F)OC(=O)N2` (stereo not given) were 0.0206 µM and 0.802 µM.
As to `CCCC#CC1(C(F)(F)F)OC(=O)Nc2ccc([N+](=O)[O-])cc21` (stereo not given), in experiment [1], the IC90 is 0.00457 µM. The compound also displayed a 50% inhibitory concentration (IC50) in experiment [2] of 0.304 µM.
In turn, `CCC#CC1(C(F)(F)F)OC(=O)Nc2ccc(N)cc21` (stereo not given) yielded an IC90 in experiment [1] of 0.0457 µM. Besides, in experiment [2], the IC50 stood at 1.89 µM.
In turn, `O=C1Nc2cccc(F)c2C(C#CC2CC2)(C(F)(F)F)O1` (stereo not given) showed an IC90 in experiment [1] of 0.00434 µM. This compound returned an IC50 in experiment [2] of 0.078 µM.
`CC(=O)Nc1ccc2c(c1)C(C#CC1CC1)(C(F)(F)F)OC(=O)N2` (stereo not given) came in with a concentration for an effect of 90% (IC90) in experiment [1] of 0.296 µM. For the same compound, in experiment [2], the half-inhibitory concentration (IC50) was over 2 µM.
Taken in the same sequence, the figures for `CC(=O)Nc1ccc2c(c1)C(C#CC(C)C)(C(F)(F)F)OC(=O)N2` (stereo not given) were 0.5 µM and over 2 µM.
With `CCC#CC1(C(F)(F)F)OC(=O)Nc2ccc([N+](=O)[O-])cc21` (stereo not given), the concentration for an effect of 90% (IC90) in experiment [1] was 0.00223 µM. This compound returned a 50% inhibitory concentration (IC50) in experiment [2] of 0.276 µM.
The compound `CCC#CC1(C(F)(F)F)OC(=O)Nc2cccc(F)c21` (stereo not given) gave a concentration for an effect of 90% (IC90) in experiment [1] of 0.00418 µM. This compound displayed a half-maximal inhibitory concentration (IC50) in experiment [2] of 0.127 µM.
For `CNc1ccc2c(c1)C(C#CC1CC1)(C(F)(F)F)OC(=O)N2` (stereo not given) the same measures were 0.00902 µM and 0.608 µM.
Taken in the same sequence, the figures for `CC(C)C#CC1(C(F)(F)F)OC(=O)Nc2ccc(N)cc21` (stereo not given) were 0.0275 µM and 0.896 µM.

For the origin of these results see ChEMBL document CHEMBL1131883, “Synthesis and evaluation of benzoxazinones as HIV-1 reverse transcriptase inhibitors. Analogs of Efavirenz (SUSTIVA)” (Bioorg Med Chem Lett, 1999).
